Source: PubChem BioAssay (NCI)
Several values for one entry are separate records, joined by “and”; a condition that tells them apart may be missing. Equal entries are not always repeated.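 A five-concentration, 48-hour dose response in 96-well plates underlies each endpoint, interpolated linearly between surrounding concentrations. Here, GI50 denotes the concentration required for 50% inhibition of growth. At the TGI there is no net growth.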

Tests used:
Experiment in all cases: NCI tumour cell line growth inhibition, 48 h
MDA-MB-435 = test system: MDA-MB-435
OVCAR-3 ovarian = test system: OVCAR-3 ovarian
SR leukemia = test system: SR leukemia
OVCAR-8 ovarian = test system: OVCAR-8 ovarian
SF-295 CNS = test system: SF-295 CNS
K-562 leukemia = test system: K-562 leukemia
HOP-62 NSCLC = test system: HOP-62 NSCLC
CAKI-1 renal = test system: CAKI-1 renal
NCI/ADR-RES ovarian = test system: NCI/ADR-RES ovarian
SK-MEL-28 melanoma = test system: SK-MEL-28 melanoma

| SMILES | TGI (MDA-MB-435) | TGI (OVCAR-3 ovarian) [µM] | TGI (SR leukemia) | TGI (OVCAR-8 ovarian) | TGI (SF-295 CNS) | TGI (K-562 leukemia) | TGI (HOP-62 NSCLC) | TGI (CAKI-1 renal) | TGI (NCI/ADR-RES ovarian) | TGI (SK-MEL-28 melanoma) | GI50 (MDA-MB-435) [µM] | GI50 (OVCAR-3 ovarian) [µM] | GI50 (SR leukemia) | GI50 (OVCAR-8 ovarian) [µM] | GI50 (SF-295 CNS) [µM] | GI50 (K-562 leukemia) [µM] | GI50 (HOP-62 NSCLC) [µM] | GI50 (CAKI-1 renal) | GI50 (NCI/ADR-RES ovarian) | GI50 (SK-MEL-28 melanoma) |
| --- | --- | --- | --- | --- | --- | --- | --- | --- | --- | --- | --- | --- | --- | --- | --- | --- | --- | --- | --- | --- |
| COc1cc2c(cc1OC)[C@H]1C(=O)c3cc4c(cc3[C@H]1N(C)C2=O)OCO4 | > 100 µM | > 100 | > 100 µM | > 100 µM | > 69.9 µM | > 100 µM | > 79.2 µM | > 100 µM | > 100 µM | > 100 µM | – | – | – | – | – | – | – | – | – | – |
| Cc1cc2c(cc1Cl)SC1=NN(C)C(c3ccccc3O)N1S2(=O)=O (stereo not drawn) | > 100 µM | > 100 | > 100 µM | > 100 µM | > 100 µM | > 100 µM | > 100 µM | > 100 µM | > 100 µM | > 100 µM | > 100 | 46 | 36600 nM | 68 | 43.6 | > 100 | 88.5 | > 100 µM | 39 µM | 86.2 µM |
| Cc1cc(N)c2ccccc2[n+]1CCCCCCCCCC[n+]1c(C)cc(N)c2ccccc21 | 0.926 µM and 3.18 µM | – | 0.656 µM and 3.95 µM and 4.37 µM | 1.99 µM and 13.8 µM | 1.84 µM and 11.9 µM and 3.61 µM | 2.22 µM and 3.84 µM and 12.4 µM | 2.8 µM and 9.51 µM | > 50 µM and 27.7 µM and 18.6 µM | > 38.5 µM and 48.5 µM and 42.9 µM | 1.33 µM and 5.09 µM and 3.28 µM | 0.245 | – | 151 nM and 1070 nM | 0.218 | 0.189 | 0.137 | 0.201 | 1.37 µM and 3.27 µM | 5.42 µM and 13.2 µM | 0.277 µM and 1.18 µM |
| CN1CCN(C(=S)SCN2C(=O)c3ccccc3S2(=O)=O)CC1 | 99.4 µM | 63.2 | 13.4 µM | > 100 µM | > 100 µM | 94.6 µM | > 100 µM | > 100 µM | > 100 µM | 37.5 µM | 28.2 | 21.9 | 4040 nM | 46.3 | > 100 | 14.5 | > 100 | 51.9 µM | 34 µM | 14.4 µM |
| Cc1ccc(OCCCCCCNCCO)c(C)c1 | 28.1 µM | 29.6 | 35.5 µM | 35.9 µM | 39 µM | 31.4 µM | 30.8 µM | 32.2 µM | 37.1 µM | 29.9 µM | 12.3 | 15.5 | 14100 nM | 17.8 | 17.8 | 12.2 | 15 | 16.2 µM | 16.3 µM | 15.4 µM |
| CN1CC(C(=O)NC2(C)OC3(O)C4CCCN4C(=O)C(Cc4ccccc4)N3C2=O)C=C2c3cccc4[nH]cc(c34)CC21 (stereo not drawn) | 50.7 µM | 43.3 | 60.7 µM | 53.7 µM | 57.1 µM | > 100 µM | 63.2 µM | 92 µM | 95.1 µM | 35.2 µM | – | – | – | – | – | – | – | – | – | – |
| O=c1[nH]c2cc(O)ccc2n2cc3c(F)cccc3c12 | > 100 µM | > 100 | 28.9 µM | > 100 µM | > 100 µM | > 100 µM | > 100 µM | > 100 µM | > 100 µM | – | 0.278 | 5.77 | 509 nM | 3.85 | 2.85 | 0.547 | 0.847 | 0.903 µM | 0.698 µM | – |
| O=[N+]([O-])c1cccc(-c2ncc(-c3ccc(Cl)cc3Cl)[nH]2)c1 | 12.2 µM | 5.93 | 2.44 µM | 53.3 µM | 5.28 µM | > 19.7 µM | 26.8 µM | 4.71 µM | > 83.3 µM | 3.72 µM | 3.62 | 2.44 | 471 nM | 22.4 | 2.14 | 2.1 | 9.53 | 1.82 µM | 11.6 µM | 1.79 µM |
| CCCCCCN(CCCCCC)CC(O)c1cccc2ccc(Cl)cc12 (stereo not drawn) | 29.4 µM | 26 | 9.85 µM | 32.7 µM | 22.1 µM | 20.9 µM | 14.5 µM | 14.7 µM | 25.1 µM | 24.3 µM | 10.2 | 13 | 3550 nM | 15.7 | 6.32 | 4.87 | 3.71 | 2.64 µM | 11.4 µM | 12 µM |
| CCCCCCN1C(=O)CN=C1Nc1ccc2cc3ccc(NC4=NCC(=O)N4CCCCCC)cc3nc2c1 | 3.77 µM | 3.08 | 4.22 µM | – | 3.82 µM | 4.93 µM | – | – | 15 µM | 5.92 µM | 1.79 | 1.36 | 1530 nM | – | 1.82 | 1.91 | – | – | 3.32 µM | 2.21 µM |
| OCCCCC#Cc1ccccc1C#Cc1cnccn1 | > 100 µM | > 100 | > 100 µM | > 100 µM | 91.6 µM | > 100 µM | > 100 µM | > 100 µM | 92.2 µM | > 100 µM | 33.8 | 31.3 | 28100 nM | 33 | 28.1 | 29.5 | 41 | 26.4 µM | 25.1 µM | 43.4 µM |
| CC(C)C[C@H](NC(=O)[C@@H](O)[C@H](N)Cc1ccccc1)C(=O)O | > 100 µM | > 100 | > 100 µM | > 100 µM | > 100 µM | > 100 µM | > 100 µM | > 100 µM | > 100 µM | > 100 µM | – | – | – | – | – | – | – | – | – | – |
| C=CC[PH+](c1ccccc1)c1ccccc1.C=CC[PH+](c1ccccc1)c1ccccc1.[Cl][Pt][Cl] | 28.9 µM | 10.4 | 11.7 µM | 31.5 µM | > 100 µM | 11.9 µM | 40.5 µM | 22.7 µM | > 100 µM | 21.3 µM | 14.8 | 3.21 | 2840 nM | 5.25 | 37.9 | 3.27 | 18.5 | 10.6 µM | 25.1 µM | 7.69 µM |
| O=c1[nH]c(-c2ccccn2)nc2sc3c(c12)CCCCCC3 | > 100 µM | > 100 | > 100 µM | > 100 µM | – | > 100 µM | > 100 µM | > 100 µM | > 100 µM | > 100 µM | > 100 | 8.51 | 864 nM | 4.33 | – | 0.99 | 6.24 | 3.29 µM | 0.961 µM | 6.01 µM |
